{"source": "patent US20130136722A1", "about": "“Methods of Ex Vivo Expansion of Blood Progenitor Cells, and Generation of Composite Grafts” (The Board of Trustees of The University of Illinois, priority 2011, published 2013)", "key": {"[1]": {"test_system": "cobblestone area-forming cells (CAFC)", "experiment": "Cobblestone area-forming cell (CAFC) assay, limiting dilution on M2-10B4 stromal cells", "type": "cell-based, human", "conditions": "for CAFC Frequency/10^4 cells: limiting dilution, mean ± SEM of three independent experiments", "description": "Colony-forming cell (CFC) were assayed by plating 5×10^2 cells per dish in semisolid media and were counted after 14 days as described (Araki et al., 2009, Id.). The number of cobble stone area-forming cell (CAFC) was quantitated in primary and expanded CD34+ cells by plating in limiting dilution onto irradiated M2-10B4 stromal cells as described (Araki et al., 2009, Id.; Conneally et al., 1997, Proc. Natl. Acad. Sci. USA. 94: 9836-9841; Taswell, 1981, J. Immunol. 126: 1614-1619).\nIn order to determine the a correlation between expansion of CD34^+CD90^+ cells and their functional potential as pluripotent hematopoietic stem cells, in vitro functional assays were performed, including assessment of colony-forming cells (CFC), a short-term assay, and cobblestone-area forming cells (CAFC), a long-term assay."}, "NOD/SCID mice [2]": {"test_system": "NOD/SCID mice", "experiment": "SCID repopulating cell (SRC) frequency by limiting dilution analyses", "type": "in vivo, mouse", "conditions": "for (# of NOD/SCID mice engrafted)/(# of mice transplanted): Day 9", "description": "Immunodeficient nonobese diabetic/ltsz-scid/scid (NOD/SCID) mice were purchased from Jackson Laboratories (Bar Harbor, Me.) and transplantation assays were performed as described (Araki et al., 2009, Id.; Araki et al., 2007, Id.; Taswell, 1981, Id.). Equal number of primary CD34^+ cells or the progeny of an equal initial number of CD34^+ cells following culture were injected per mouse intravenously. Mice were sacrificed 8 weeks after transplantation, and bone marrow (BM) cells from each mouse were analyzed by flow cytometry to detect multilineage human cell engraftment.\nThe frequency of SCID-repopulating cells (SRCs) present in VPA-expanded, CD34^+CD90^+ cord blood-derived stem cells was quantitated in comparison to unmanipulated primary cord blood cells by in vivo xeno-transplant studies using limiting dilution analyses as described previously (Conneally et al., 1997, Proc. Natl. Acad. Sci. 94: 9836-41; Bhatia et al., 1997, J Exp Med. 186: 619-24; Wang et al., 1997, Blood 89: 3919-24; Chute et al., 2005, Blood 105: 576-83). The frequency of SRC was 1 in 22,000 (95% Confidence Interval: 1/11,722-1/41,293) in primary CD34^+CD90^+ cells, and 1 in 21,720 (95% Confidence Interval: 1/11,160-1/42,269) in the VPA expanded cultures (Table 5 and FIG. 2E)."}, "NOD/SCID mice [3]": {"test_system": "NOD/SCID mice", "experiment": "In vivo bone marrow homing assay", "parameters": "species or system mouse", "conditions": "expanded CB cells homing to bone marrow; FIG. 2F", "description": "In order to assess whether the lower SRC frequency, or lower hematopoietic chimerism, detected following transplantation of VPA expanded cells was due to a defect in the homing of transplanted cells to the host bone marrow, an in vivo homing assay was performed in NOD/SCID mice."}, "NOD/SCID mice [4]": {"test_system": "NOD/SCID mice", "experiment": "Serial (secondary) transplantation of expanded CB cells", "type": "in vivo, mouse"}, "[5]": {"test_system": "genes implicated in HSC self-renewal, differentiation, expansion and maintenance", "experiment": "Real time quantitative PCR of gene transcripts in re-isolated expanded CD34+ cells", "type": "cell-based, human", "description": "RNA preparation and real time quantative PCR assays were performed using SYBR green dye (Life Technologies; Carlsbad, Calif.) and an ABI 7500 Fast Real-Time PCR system (Life Technologies) were used to quantitate gene expression in reverse-transcribed mRNA as described (Araki et al., 2007, Id.). Gene expression was calculated by relative quantitation, and all results were normalized to expression of GAPDH.\nTo investigate whether treating cells with CMA altered gene expression, transcript levels of several genes associated with hematopoietic stem cell (HSC) self-renewal and differentiation were compared in unmanipulated primary CD34^+ cells (day 0) and CD34^+ cells expanded in the presence or absence of CMA (5azaD/TSA) during ex vivo culture. […] In the absence of 5azaD/TSA treatment, transcript levels of these genes were reduced over the course of 9 days of culture, correlating well with poor in vivo hematopoietic reconstitution capacity of untreated cells compared to unmanipulated primary or 5azaD/TSA expanded CD34^+ cells. […] In addition, transcript levels of CDK inhibitor P21, which regulates the G1/S transition of the cell cycle, was reduced in CD34^+ cells expanded in the absence of CMAs, but was not reduced in 5azaD/TSA expanded cells (p=0.06). Reduced P21 levels are generally associated with shorter G1/S transition and faster rate of cell divisions. […] This was also consistent with previous results showing membrane tracking dye as well as bromodeoxyuridine (BrdU) pulse chase assays of CD34^+CD90^+ cells during expansion culture (Araki et al., 2007, Blood 109: 3570-78)."}, "LTB4": {"test_system": "LTB4", "experiment": "LTB4 in conditioned media by AChE competitive ELISA", "type": "cell-based, human", "conditions": "day 9 of expansion culture; FIG. 4E", "description": "The concentration of LTB4 in conditioned media was measured by an acetylcholine esterase competitive enzyme immunoassay following the manufacturer's instructions (Cayman Chemical Co. Ann Arbor, Mich.). Absorbance at 405 nm was read using ELx 800, instrument (Bio Tek Instruments Inc.). Results were calculated using mean values of triplicate wells with standard errors (SE)."}}, "note": "Several values for one entry are separate records, joined by “and”; a condition that tells them apart may be missing. Equal values may be shown once.", "data": [{"smiles": "CCCC(CCC)C(=O)O", "note": "[VPA, valproic acid]", "values": [{"measurement": "fold expansion of long term (5 weeks) CAFC", "setting": "[1]; FIG. 2B", "result": "8.4±1.6", "unit": "fold"}, {"measurement": "CAFC Frequency/10^4 cells", "setting": "[1]", "result": "14.67±0.74 /10^4 cells"}, {"measurement": "CAFC Frequency/10^4 cells", "setting": "[1]; listed as VPA Alone", "result": "14.67 ± 0.74 /10^4 cells"}, {"measurement": "(# of NOD/SCID mice engrafted)/(# of mice transplanted)", "setting": "NOD/SCID mice [2]; 2,000 CD34+CD90+ cells used to initiate ex vivo culture", "result": "0/7"}, {"measurement": "(# of NOD/SCID mice engrafted)/(# of mice transplanted)", "setting": "NOD/SCID mice [2]; 5,000 CD34+CD90+ cells used to initiate ex vivo culture", "result": "2/5"}, {"measurement": "(# of NOD/SCID mice engrafted)/(# of mice transplanted)", "setting": "NOD/SCID mice [2]; 10,000 CD34+CD90+ cells used to initiate ex vivo culture", "result": "2/7"}, {"measurement": "(# of NOD/SCID mice engrafted)/(# of mice transplanted)", "setting": "NOD/SCID mice [2]; 20,000 CD34+CD90+ cells used to initiate ex vivo culture", "result": "5/8"}, {"measurement": "SRC numbers during ex-vivo culture (in words)", "setting": "NOD/SCID mice [2]; mouse, in vivo", "result": "maintained SRC numbers"}, {"measurement": "homing efficiency", "setting": "NOD/SCID mice [3]", "result": 1.68, "unit": "%"}, {"measurement": "Secondary mouse BM chimerism (% human)", "setting": "NOD/SCID mice [4]; 10-30 × 10^6 unseparated BM cells from primary mouse, sacrificed 7 weeks later, individual mice", "result": "Not Detectable"}, {"measurement": "Primary mouse BM chimerism (% human)", "setting": "NOD/SCID mice [4]; progeny of 1 × 10^4 primary CB cells treated ex vivo for 9 days, individual mice", "result": "0.60 % human and 1.0 % human (2×) and 0.30 % human and 5.6 % human"}, {"measurement": "secondary hosts engrafted", "setting": "NOD/SCID mice [4]; serial transplantation from primary recipients", "result": "none of the 5"}, {"measurement": "transcript levels of Alox5 in contrast to CD34+ cells expanded in 5azaD/TSA", "setting": "[5]", "result": "significantly higher"}, {"measurement": "transcript levels of S100A8 and Alox5 in contrast to controls", "setting": "[5]; FIGS. 5A, 5B", "result": "increased"}, {"measurement": "transcript levels of GATA1 compared with control cultures", "setting": "[5]; day 3, FIG. 3B", "result": "significantly increased"}, {"measurement": "level of leukotriene B4 (LTB4) in conditioned medium", "setting": "LTB4", "result": "increased compared to control"}]}]}
